Test results: PubChem BioAssay (NCI)
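Dose response: 5 concentrations. Exposure: 48 h. Format: 96-well plates. Endpoint: linear interpolation; highest concentration if not reached. GI50 is the concentration that inhibits growth by half. TGI denotes the concentration required for complete inhibition of growth.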

Experiments:
Assay in all cases: NCI anticancer screen, dose series, 48 h
UACC-257 melanoma = tested on: UACC-257 melanoma
OVCAR-8 ovarian = tested on: OVCAR-8 ovarian
A498 renal = tested on: A498 renal
MALME-3M melanoma = tested on: MALME-3M melanoma
SF-268 CNS = tested on: SF-268 CNS
RPMI-8226 leukemia = tested on: RPMI-8226 leukemia
HCT-116 colon = tested on: HCT-116 colon
A549 NSCLC = tested on: A549 NSCLC
SK-OV-3 ovarian = tested on: SK-OV-3 ovarian
HCT-15 colon = tested on: HCT-15 colon

SMILES | TGI (UACC-257 melanoma) [µM] | TGI (OVCAR-8 ovarian) [µM] | TGI (A498 renal) [µM] | TGI (MALME-3M melanoma) [µM] | TGI (SF-268 CNS) [µM] | TGI (RPMI-8226 leukemia) [µM] | TGI (HCT-116 colon) [µM] | TGI (A549 NSCLC) [µM] | TGI (SK-OV-3 ovarian) [µM] | TGI (HCT-15 colon) [µM] | GI50 (UACC-257 melanoma) [µM] | GI50 (OVCAR-8 ovarian) [nM] | GI50 (A498 renal) [µM] | GI50 (MALME-3M melanoma) [nM] | GI50 (SF-268 CNS) [nM] | GI50 (RPMI-8226 leukemia) [nM] | GI50 (HCT-116 colon) [nM] | GI50 (A549 NSCLC) [µM] | GI50 (SK-OV-3 ovarian) [µM] | GI50 (HCT-15 colon) [nM]
CN(C)c1ccc2nc(CC(O)(C(F)(F)F)C(F)(F)F)ccc2c1 | > 10 | > 10 | > 10 | > 10 | > 10 | > 10 | > 10 | > 10 | > 10 | > 10 | – | – | – | – | – | – | – | – | – | –
O=c1cc(-c2ccccc2)[nH]c2cc(Cl)ccc12 | 83.2 | 33.1 | > 100 | > 100 | > 100 | 10.5 | > 100 | > 100 | 3.95 | 15.8 | – | – | – | – | – | – | – | – | – | –
C#Cc1cccc(NC(=O)c2ccc(NC(=O)CCl)cc2)c1 | > 82.5 | > 82.5 | > 82.5 | 53.3 | > 82.5 | 44.1 | 36.3 | > 82.5 | > 82.5 | 25 | > 82.5 | 22500 | > 82.5 | 16400 | 18700 | 14700 | 11900 | > 82.5 | > 82.5 | 9950
Cc1ccc(S(=O)(=O)Nc2ccc(-c3cc(-c4cccc(F)c4)c(C#N)c(N)n3)cc2)cc1 | 4.24 | 7.83 | 16.2 | 3.25 | 12.8 | 8.92 | 3.23 | 15.7 | 23.3 | 4.86 | 1.93 | 2430 | 3.7 | 1610 | 2970 | 2210 | 1690 | 3.11 | 8.92 | 1880
CCN=C(C#N)NCC | > 100 | > 100 | > 100 | > 100 | > 100 | > 100 | > 100 | > 100 | > 100 | > 100 | – | – | – | – | – | – | – | – | – | –
Cc1ccccc1C1CC(c2ccccc2)=NO1 (centres undefined) | > 100 | > 100 | > 100 | > 100 | > 100 | > 100 | > 100 | > 100 | > 100 | > 100 | – | – | – | – | – | – | – | – | – | –
Cc1ccc(S(=O)(=O)N2CCc3ccc(O)c4c3C2Cc2ccc3c(c2-4)OCO3)cc1 (centres undefined) | 18.1 | 20.7 | 7.09 | 30.4 | 23.3 | 5.08 | 10.6 | 12.4 | 8.09 | > 35.1 | 0.656 | 1410 | 0.898 | 775 | 1010 | 959 | 451 | 0.808 | 0.731 | 583
C=C1C(=O)O[C@H]2[C@H]1CC/C(COC(=O)NCCCCCCCCNC(=O)OC/C1=C/CC[C@@]3(C)O[C@H]3[C@H]3OC(=O)C(=C)[C@@H]3CC1)=C\CC[C@@]1(C)O[C@@H]21 | 2.82 | 1.24 | 3.14 | 0.43 | 2.69 | 0.745 | 0.407 | 3.51 | 12.3 | 1.41 | 0.848 | 326 | 1.69 | 199 | 999 | 250 | 198 | 1.7 | 3.64 | 346
COc1ccc(N(C)c2nc(Cl)nc3cnn(C)c23)cc1 | > 100 | > 100 | 0.178 | > 100 | > 100 | > 100 | > 100 | > 100 | > 100 | > 100 | 29.8 | 19.2 | < 0.01 | – | < 11.2 | < 17.7 | < 10 | < 0.0117 | < 0.01 | < 10
CN(C)CCOC(=O)Nc1nc2ccc(Sc3ccccc3)cc2[nH]1 | 29.4 | 26.8 | 10.6 | 19.5 | 25.4 | 17.9 | 12.6 | 18.3 | 23.7 | 16.2 | 13.4 | 4260 | 2.62 | 4930 | 6410 | 3720 | 3160 | 4.97 | 3.87 | 1960
COc1cc2c(cc1C)NC(=O)/C2=C\c1c[nH]c2ccccc12 | 43.8 | 67.2 | 26.9 | 42.3 | 36.3 | 63 | 90.1 | > 100 | 37.7 | 25.4 | 21.9 | 20300 | 11.2 | 15300 | 12000 | 5950 | 21100 | 28.4 | 17.3 | 7160
CCn1ccc(NS(=O)(=O)c2ccc(N)cc2)nc1=O | > 100 | > 100 | > 100 | > 100 | > 100 | > 100 | > 100 | > 100 | > 100 | > 100 | > 100 | > 100000 | > 100 | > 100000 | > 100000 | > 100000 | > 100000 | > 100 | > 100 | > 100000
Nc1ccc(Sc2c3ccccc3nc3ccccc23)cc1 | 33.1 | 28.6 | > 100 | 36.2 | 40.5 | 17.4 | 26.1 | > 100 | 59.8 | 36.7 | – | – | – | – | – | – | – | – | – | –
Cc1cc(Cl)cc(Cc2cc(Cl)cc(C)c2O)c1O | 12.3 | 6.16 | 14.1 | 6.86 | 16.8 | 9.35 | 5.54 | 11.1 | 8.89 | 11.3 | 3.02 | 2100 | 3.05 | 2350 | 2900 | 1580 | 2130 | 2.91 | 3.18 | 3060
O=C(O[C@H]1CCN2C[C@H]3C[C@H](CN4C(=O)CCC[C@H]34)[C@@H]2C1)c1ccc(O)cc1 | > 100 | > 100 | > 100 | > 100 | > 100 | > 100 | > 100 | > 100 | > 100 | > 100 | – | – | – | – | – | – | – | – | – | –
